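1) Cells in 96-well plates. 2) Compound, 48 h, 5 concentrations. 3) Linear interpolation between surrounding doses. 4) Unreached endpoint = highest concentration. At the TGI there is no net growth.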
What was measured:
Assay in all cases: NCI tumour cell line growth inhibition, 48 h
MALME-3M melanoma = system: MALME-3M melanoma
UO-31 renal = system: UO-31 renal
HT29 colon = system: HT29 colon
KM12 colon = system: KM12 colon
SK-OV-3 ovarian = system: SK-OV-3 ovarian
ACHN renal = system: ACHN renal
HOP-62 NSCLC = system: HOP-62 NSCLC
UACC-257 melanoma = system: UACC-257 melanoma
MDA-MB-231 breast = system: MDA-MB-231 breast
UACC-62 melanoma = system: UACC-62 melanoma

Structure (SMILES) | TGI (MALME-3M melanoma) [µM] | TGI (UO-31 renal) [µM] | TGI (HT29 colon) [µM] | TGI (KM12 colon) [µM] | TGI (SK-OV-3 ovarian) [µM] | TGI (ACHN renal) [µM] | TGI (HOP-62 NSCLC) [µM] | TGI (UACC-257 melanoma) [µM] | TGI (MDA-MB-231 breast) [µM] | TGI (UACC-62 melanoma) [µM]
CC(Cl)CC(=O)OCC1CCCN2CCCCC12 (stereo not given) | > 100 | > 100 | > 100 | > 100 | > 100 | > 100 | > 100 | > 100 | > 100 | > 100
Cc1cccc(N/C(Sc2ccccc2)=C(/C(Cl)=C(Cl)Cl)[N+](=O)[O-])c1 | 30.2 | 29.9 | 43.1 | 48.6 | 47.6 | 74.9 | 40.1 | 47.2 | 53.9 | 54.6
CC1=C(C)SC(=C2Sc3nc(O)[nH]c(=O)c3S2)S1 | 50.8 | > 100 | > 100 | > 100 | > 100 | > 100 | > 100 | > 100 | > 100 | 59.4
CN(C)c1ccc(C=C2C(=O)NC(=S)NC2=O)c2ccccc12 | > 100 | > 100 | > 100 | > 100 | > 100 | > 100 | > 100 | > 100 | > 100 | > 100
Cn1c(N)nc(-c2ccc(Cl)cc2)c1SSc1c(-c2ccc(Cl)cc2)nc(N)n1C | 4.57 | 3.24 | 4.74 | 3.46 | 27.4 | 5.14 | 7.69 | 3.52 | 2.88 | 5.03
CC(=O)OC(C)(C)CCC(=O)[C@](C)(O)[C@H]1[C@H](O)C[C@@]2(C)[C@@H]3CCc4c(cc(OC5OC(CO)C(O)C(O)C5O)c(O)c4C)C3(C)C(=O)C[C@]12C (stereo not given in full) | > 100 | > 100 | > 100 | > 100 | > 100 | > 100 | > 100 | > 100 | > 100 | > 100
CN1CC2CN(Cc3ccccc3)CCN2c2cccnc21 (stereo not given) | > 100 | > 100 | 87.9 | 89.1 | > 100 | > 100 | > 100 | > 100 | > 100 | > 100
O=C(c1ccc(Cl)cc1)N(C(=S)OCCOc1ccccc1)c1ccccc1 | 70.7 | 3.12 | 35.6 | 39.4 | > 100 | 47.9 | 54 | 39.5 | 75.6 | 35.1
ClCCCCCc1c2nc(c(CCCCCCl)c3ccc([nH]3)c(CCCCCCl)c3ccc([nH]3)c(CCCCCCl)c3nc1C=C3)C=C2 | > 100 | > 100 | > 100 | > 100 | > 100 | > 100 | > 100 | > 100 | > 100 | > 100
CNc1nc(C(N)=O)c(N)s1 | > 100 | > 100 | > 100 | > 100 | > 100 | > 100 | > 100 | > 100 | > 100 | > 100
CC1(C)N=C(C2CCCN2C(=O)OCc2ccccc2)OC1=O (stereo not given) | > 100 | > 100 | > 100 | > 100 | > 100 | > 100 | > 100 | > 100 | > 100 | > 100
BrCC[N+]12CC[N+](CCBr)(CC1)C2 | > 100 | > 100 | > 100 | > 100 | > 100 | > 100 | > 100 | > 100 | > 100 | > 100
CCN1CN(c2ccccc2)C2(CCN(CC(CC3OCCO3)c3ccc(F)cc3)CC2)C1=O (stereo not given) | 43.1 | > 74.8 | 5.69 | 17.5 | > 73.3 | > 30.5 | 12.1 | 13.8 | > 44.2 | 47.1
CCO/C=N/C1=C(C#N)SC2=N/C(=C\c3ccccc3)C(=O)N21 | > 100 | > 100 | > 100 | > 100 | > 100 | > 100 | > 100 | > 100 | > 100 | > 100
C=C1C[C@H](O)[C@H](Br)C(C)(C)C12CCC(C)(Cl)C(Br)C2 (stereo not given in full) | 16.6 | 17 | 0.895 | 9.88 | 12.7 | 14.8 | 12.2 | 3.06 | 11.3 | 15.6
O=C1CC(NCc2ccccc2)c2c(Cl)sc(Cl)c21 (stereo not given) | 44.4 | 75.7 | 74.5 | > 93.2 | > 100 | 52.8 | > 88.1 | > 63 | 66.4 | 24.3
COc1ccc(-c2oc3c(OC)c(OC)cc(O)c3c(=O)c2OC)cc1 | > 100 | > 100 | > 100 | > 100 | > 100 | > 100 | > 100 | > 100 | > 100 | > 100
Cc1nc2sccn2c1/C=C1/C(=O)Nc2cccc(Cl)c21 | > 100 | > 100 | > 100 | > 100 | > 100 | > 100 | > 100 | > 100 | > 100 | > 100

Structure (SMILES) | TGI (MALME-3M melanoma) [µM] | TGI (UO-31 renal) [µM] | TGI (HT29 colon) [µM] | TGI (KM12 colon) [µM] | TGI (SK-OV-3 ovarian) [µM] | TGI (ACHN renal) [µM] | TGI (HOP-62 NSCLC) [µM] | TGI (UACC-257 melanoma) [µM] | TGI (MDA-MB-231 breast) [µM] | TGI (UACC-62 melanoma) [µM]
COc1ccc(-c2c(C#N)c(S)n(NS(=O)(=O)c3ccccc3)c(=O)c2C#N)cc1 | > 100 | > 100 | > 100 | > 100 | > 100 | > 100 | > 100 | > 100 | > 100 | > 100
O=c1cc(-c2cccnc2)[nH]c2cc3c(cc12)OCO3 | > 26 | > 100 | 59.3 | > 100 | > 67 | > 100 | 58.8 | > 100 | > 100 | > 100
CC(=O)Oc1ccc2c3c1O[C@H]1[C@H](O)CC[C@@]4(O)[C@@H](C2)N(C)CC[C@]314 | > 100 | > 100 | > 100 | > 100 | > 100 | > 100 | > 100 | > 100 | > 100 | > 100
CCOC(=O)c1nnc2c(C#N)c(-c3ccccc3)c(C)n2c1N | 65.2 | > 100 | > 100 | > 100 | > 100 | > 100 | > 100 | 92.7 | > 100 | 66.6
CC(=O)OC(Cc1c(O)c2c(C)cccc2oc1=O)C(C)(C)O (stereo not given) | > 100 | > 100 | > 100 | > 100 | > 100 | > 100 | > 100 | > 100 | > 100 | > 100
c1ccc(CSC2(SCc3ccccc3)CCCCC2)cc1 | > 10 | > 10 | > 10 | > 10 | > 10 | > 10 | > 10 | > 10 | > 10 | > 10
O=C(c1ccccc1)N1C(=S)N(c2ccccn2)C(=Nc2ccccc2)C1=Nc1ccccc1 | 53.4 | 27.1 | > 100 | 19 | > 86.6 | 35.3 | > 84 | > 74.6 | > 71.9 | > 41.3
Cc1ccc(N/C(SCc2ccccc2)=C(\C(Cl)=C(Cl)Cl)[N+](=O)[O-])c(C)c1 | 47.5 | 63.5 | > 100 | > 100 | > 100 | > 100 | > 100 | > 100 | 34.8 | > 100
Cc1ccc(Nc2nc3c(=O)n(C)c(=O)n(C)c3nc2Nc2ccc(C)cc2)cc1 | 28.6 | 24.4 | 23.4 | 34.5 | > 100 | 11.8 | 40.9 | 30.5 | 27.1 | 25
COC(=O)/C=C1/OC(c2ccc(OC)cc2)=C(Cl)C1=O | 30.7 | 37.7 | 36.5 | 36.4 | 25.2 | 31.8 | 39.2 | 49.6 | 26.2 | 37.9
O=C(c1cc2c(c3ccccc13)NC1(CCCCC1)N=C2C(F)(F)F)C(F)(F)F | 17.4 | 11.8 | 13.4 | 14.2 | 18.7 | 13.8 | > 100 | 11.3 | 9.83 | 13.6
CN(C)Cc1cc(N=Nc2ccc(Cl)cc2)cc(CN(C)C)c1O | 28.6 | 7.23 | 19 | 20.7 | 33.3 | 19 | 14.6 | 31.5 | 20.9 | 30.2
CSc1nc2c(c(=O)[nH]1)N=C(c1ccccc1)CC(c1ccccc1)N2 (stereo not given) | 75.6 | > 100 | > 100 | 29.2 | 89.7 | 75.3 | > 100 | > 100 | 45.5 | 57.1
CCOP(=O)(OCC)OC1c2[nH]cc(C(=O)OCc3ccccc3)c2-c2cc(C(=O)OC)[nH]c2C1OC (stereo not given) | 60 | > 59.1 | > 48.4 | > 92.6 | 58 | 30.5 | 36.3 | > 35 | 37 | > 79.6
CC(=O)CC1=C(OC(C)C)C2(OCCO2)C1O (stereo not given) | > 100 | > 100 | > 100 | > 100 | > 100 | > 100 | > 100 | > 100 | > 100 | > 100
Cc1ccc2c(/C=C/c3ccc(N(C)C)cc3)ccc(C(C)C)cc1-2 | > 100 | > 100 | > 100 | > 100 | > 100 | > 100 | > 100 | > 100 | > 100 | > 100
O=C(N/N=C/c1ccccc1)c1cccc2nc3ccccc3nc12 | > 100 | > 100 | > 100 | > 100 | > 100 | > 100 | > 45.7 | > 100 | > 100 | > 100
